According to patent US5180742A, “Quinone derivatives, their production and use” (Takeda Chemical Industries, Ltd., priority 1984, dated 1993):

What was measured:
[1] = system: ischemic convulsive seizure due to bilateral common carotid artery ligation in SHR rats; experiment: Inhibitory action on induction of convulsive seizure in experimental cerebral infarction model of SHR rats; type: in vivo, spontaneously hypertensive rats; conditions: control 151 ± 5
Method: Inhibitory Action on Induction of Convulsive Seizure in an Experimental Cerebral Infarction Model of Spontaneously Hypertensive Rats
Cerebral ischemia was induced by simultaneous ligation of bilateral common carotid arteries in male spontaneously hypertensive (SHR) rats (about 22 weeks of age) under light pentobarbital anesthesia. Thereafter, over about 4 hours, the behaviour was observed under conscious state.
Test drugs were orally administered as a gum arabic suspension 1 hour before the ligation of bilateral common carotid arteries under an unanesthetized condition.

[2] = system: SRS-A generation in the rat peritoneal cavity; experiment: Effects on immunologically stimulated generation of SRS-A in the rat peritoneal cavity; type: in vivo; conditions: 1 mg/kg intraperitoneal, 1 min before antigen
Method: Slow Reacting Substance of Anaphylaxis (SRS-A) Generation in Rat Peritoneal Cavity
Generation of SRS-A in rat peritoneal cavity was determined by the method of Orange et al. [J. Immunol., 105, 1087-1095 (1970)] Rat-anti-egg albumin antiserum wad diluted twice with saline, and 2 ml of it was intraperitoneally given to the rat. Two hours later, egg albumin 2 mg in 5 ml of Tyrode solution containing heparin ([…]) and gelatin (0.1%) was intraperitoneally administered. Fifteen minutes after the antigen challenge, the animals were killed by bleeding under ether anesthesia and the solution given into the peritoneal cavity was harvested. The solution was centrifuged at 900 g for 5 min. Two ml of the supernatent was mixed with 7 ml of cold absolute ethanol and the mixture stood for 30 min at 4° C. After centrifugation at 1,500 g for 10 min, the supernatant was evaporated. The residue was dissolved in 1 ml of saline. Amount of SRS-A was bioassayed using guinea pig ileum. Drug dissolved in a 1% dimethylsulfoxide was intraperitoneally given 1 min before the antigen challenge.

CC1=C(C)C(=O)C(C(CCCCCC(=O)O)c2ccccc2)=C(C)C1=O (stereo not shown) [Compound No. 50, 7-(3,5,6-trimethyl-1,4-benzoquinon-2-yl)-7-phenylheptanoic acid]
Time to appearance of convulsive seizure ([1]; 3 mg/kg oral): 204 ± 7 min | Time to appearance of convulsive seizure ([1]; 10 mg/kg oral): 220 ± 9 min | SRS-A generation, Inhibition (%) [2]: 72% | SRS-A generation ([2]; control 26.5 ± 3.9): 7.5 ± 2.0 LTD4 ng/rat
